Source: patent US20230183640A1, “METABOLIC INHIBITORS WITH EFFICACY FOR INHIBITING SULFIDE PRODUCTION IN HARSH ENVIRONMENTS” (MC (US) 3 LLC, priority 2020, published 2023)

Columns and labels:
[1] = tested on: Desulfovibrio alaskensis 14563; test: H2S and Log (Growth) efficacy against SRB, 96-Well Plate Method; format: cell-based
Procedure: A lyophilized Desulfovibrio alaskensis 14563, Desulfovibrio longus 51456, and Desulfovibrio gabonensis 700201 pure cultures received from ATCC were resuspended individually in 500 ul of MB 1250. Aseptically, the content was transferred to a 5-mL tube of MB1250 medium. The cultures were incubated in an anaerobic chamber at 30° C. for 72 hrs. Subsequently, an individual stock culture with a final concentration of 25% glycerol were prepared by adding equal volumes of culture and 50% glycerol. 1 ml of the cultures were then transferred to 2-ml cryogenic vials and stored at −80° C. The purity of the stock cultures was evaluated through PCR, by amplifying the 16S rDNA region, and thus, it was verified that the original ATCC sample was a pure culture. 48-hour cultures of ATCC Desulfovibrio alaskensis 14563, Desulfovibrio longus 51456, and Desulfovibrio gabonensis 700201 were prepared in an anaerobic chamber. Each culture was prepared as a 1:10 culture by taking 1 milliliter (mL) of a pure culture and inoculating 9 milliliters (mL) of fresh MB1250 media. The Desulfovibrio alaskensis 14563 and Desulfovibrio gabonensis 700201 were all grown at 30° C. and the Desulfovibrio longus 51456 culture was grown at 35° C.
After the 48-hour incubation, 600 microliters (μL) were taken from each culture and optical density (OD) was measured using a Thermofisher Spectronic 200 Spectrophotometer at 600 nm. Each culture was diluted to 0.05 OD600 in fresh MB1250 media and added to the 96 well plates. Edge wells were not used due to their inherent variability and evaporation of the media. Each of the components were added at their respective concentrations for a final volume of 500 μL per well. In Table 3, 6 and 7, the concentrations of the compound used for the experiments are listed. Each experiment was done with at least three replicates for different treatments and non-treatment controls. […] Plates were then sealed with a titer-top and placed into anaerobic boxes and incubated in an anaerobic incubator at 30° C.
At each time point, sulfide samples were taken, and enumeration plates were made. Enumeration plates were made to determine the log growth in each dosed sample. For this process, enumeration plates were prepared by adding 180 μL fresh media MB1250 containing 0.01 wt % ferrous ammonium sulfate. 20 μL was taken from each well of the challenge plates and transferred to the enumeration plates using a 20-200 μL multichannel pipette. Enumeration plates were mixed three times using the multichannel pipette and serial diluted down the plate tenfold (20 μL into 180 μL). This serial dilution process was repeated for all challenge plate rows giving a total of 6 enumeration plates.
After 7 days these enumeration plates were read. The ferrous ammonium sulfate in each plate would be converted to iron sulfide, changing wells with SRB growth from clear to black. By counting the number of black wells in a row, the log growth from the original well in the challenge plate can be determined.
To determine hydrogen sulfide production in each sample, sulfide samples were also taken from each challenge plate. From each well, 9 μL were taken and added to 60 μL of 2% zinc acetate with 0.02% acetic acid. Then, 180 μL of milliQ water was added. 60 μL of stock solution 1 containing 64% sulfuric acid, <1% Dimethyl-4-phenylenediamine (DMPD), water to 100% was added to each well on the plates. This was followed by 3 μL of stock solution 3 containing 50% Iron (III) chloride. All chemicals are ordered from Fisher Scientific and used as received. These were mixed three times and read after 15 minutes. The plates were read at 670 nm using a Biotek microplate reader. Absorbance readings were converted to mM using a standard curve and this was converted to parts per million using the molar mass of sulfur. The standard curves were made using sodium sulfide nonahydrate solutions to give final solutions of 0, 0.125, 0.25 0.5, 1.0, and 1.5 ppm.

[2] = tested on: sulfate reducing bacteria; test: Efficacy in inhibiting H2S production from sulfate reducing bacteria; format: cell-based; details: anaerobic conditions
Procedure: To understand the hydrogen sulfide inhibition efficacy of the N-hydroxycarboxamide compounds of the present invention, several compounds were tested. Some compounds that can be used in this H2S inhibiting composition are disclosed in Table 2. For the testing procedures, the compounds were dissolved in DMSO, resulting in a stock solution of about 8000-100000 ppm, which was subsequently diluted in 96-well plates or 10 mL serum vials containing media and selected culture to give varying concentrations from 0.09 to 1000 ppm of the compounds in final solution for efficacy testing.
Strains of commonly found bacteria were used for testing the efficacy of the compounds, viz. Desulfovibrio alaskensis, Desulfovibrio longus and Desulfovibrio gabonensis. Media for the cultures was also prepared by using a standard method. The cultures were aseptically used and incubated under anaerobic conditions. Two well established methods were used for testing various compounds:
The compounds C1, C12, C14, C15 and C16 were tested individually to understand each of their efficacies in inhibiting the H2S production from sulfate reducing bacteria, under standard temperature and pressure conditions. The efficacy of compounds C14 and C15 against hydrogen sulfide production are disclosed in Example 1, Tables 6 and 7.

SMILES: O=C(CCCN1C(=O)c2cccc3cccc(c23)C1=O)NO [C12]
- H2S ([1]; Table 6 run, 2 days, 7.615 PPM): 77.6 PPM
- Log (Growth) ([1]; Table 6 run, 2 days, 7.615 PPM): 7
- H2S ([1]; Table 6 run, 2 days, 15.75 PPM): 115.3 PPM
- Log (Growth) ([1]; Table 6 run, 2 days, 15.75 PPM): 7.5
- H2S ([1]; Table 6 run, 2 days, 31.25 PPM): 90.1 PPM
- Log (Growth) ([1]; Table 6 run, 2 days, 31.25 PPM): 7.0
- H2S ([1]; Table 6 run, 2 days, 125 PPM): 91.4 PPM
- Log (Growth) ([1]; Table 6 run, 2 days, 125 PPM): 7.0
- H2S ([1]; Table 6 run, 2 days, 500 PPM): 8.7 PPM
- Log (Growth) ([1]; Table 6 run, 2 days, 500 PPM): 0.0
- H2S ([1]; Table 6 run, 2 days, 1000 PPM): 5.4 PPM
- Log (Growth) ([1]; Table 6 run, 2 days, 1000 PPM): 0.0
- H2S ([1]; Table 6 run, 5 days, 7.615 PPM): 17.5 PPM
- Log (Growth) ([1]; Table 6 run, 5 days, 7.615 PPM): 8.0
- H2S ([1]; Table 6 run, 5 days, 15.75 PPM): 26.7 PPM
- Log (Growth) ([1]; Table 6 run, 5 days, 15.75 PPM): 8.0
- H2S ([1]; Table 6 run, 5 days, 31.25 PPM): 42.5 PPM
- Log (Growth) ([1]; Table 6 run, 5 days, 31.25 PPM): 7.0
- H2S ([1]; Table 6 run, 5 days, 125 PPM): 21.3 PPM
- Log (Growth) ([1]; Table 6 run, 5 days, 125 PPM): 3.0
- H2S ([1]; Table 6 run, 5 days, 500 PPM): 6.1 PPM
- Log (Growth) ([1]; Table 6 run, 5 days, 500 PPM): 0.0
- H2S ([1]; Table 6 run, 5 days, 1000 PPM): 4.8 PPM
- Log (Growth) ([1]; Table 6 run, 5 days, 1000 PPM): 0.0
- H2S ([1]; Table 7 run, 2 days, 7.615 PPM): 67.5 PPM
- Log (Growth) ([1]; Table 7 run, 2 days, 7.615 PPM): 8.0
- H2S ([1]; Table 7 run, 2 days, 15.75 PPM): 43.7 PPM
- Log (Growth) ([1]; Table 7 run, 2 days, 15.75 PPM): 7.3
- H2S ([1]; Table 7 run, 2 days, 31.25 PPM): 18.2 PPM
- Log (Growth) ([1]; Table 7 run, 2 days, 31.25 PPM): 7.5
- H2S ([1]; Table 7 run, 2 days, 125 PPM): 12.2 PPM
- Log (Growth) ([1]; Table 7 run, 2 days, 125 PPM): 5.0
- H2S ([1]; Table 7 run, 2 days, 500 PPM): 2.2 PPM
- Log (Growth) ([1]; Table 7 run, 2 days, 500 PPM): 3.0
- H2S ([1]; Table 7 run, 2 days, 1000 PPM): 1.8 PPM
- Log (Growth) ([1]; Table 7 run, 2 days, 1000 PPM): 2.5
- H2S ([1]; Table 7 run, 5 days, 7.615 PPM): 30.6 PPM
- Log (Growth) ([1]; Table 7 run, 5 days, 7.615 PPM): 7.3
- H2S ([1]; Table 7 run, 5 days, 15.75 PPM): 34.4 PPM
- Log (Growth) ([1]; Table 7 run, 5 days, 15.75 PPM): 6.7
- H2S ([1]; Table 7 run, 5 days, 31.25 PPM): 15.1 PPM
- Log (Growth) ([1]; Table 7 run, 5 days, 31.25 PPM): 5.5
- H2S ([1]; Table 7 run, 5 days, 125 PPM): 6.2 PPM
- Log (Growth) ([1]; Table 7 run, 5 days, 125 PPM): 5.0
- H2S ([1]; Table 7 run, 5 days, 500 PPM): 1.9 PPM
- Log (Growth) ([1]; Table 7 run, 5 days, 500 PPM): 0.0
- H2S ([1]; Table 7 run, 5 days, 1000 PPM): 2.0 PPM
- Log (Growth) ([1]; Table 7 run, 5 days, 1000 PPM): 0.0
- efficacy for inhibiting hydrogen sulfide production [2]: high efficacy

SMILES: CCCCCCCC(=O)NO [C16]
- H2S ([1]; Table 7 run, 2 days, 7.615 PPM): 83.5 PPM
- Log (Growth) ([1]; Table 7 run, 2 days, 7.615 PPM): 7.7
- H2S ([1]; Table 7 run, 2 days, 15.75 PPM): 76.9 PPM
- Log (Growth) ([1]; Table 7 run, 2 days, 15.75 PPM): 7.7
- H2S ([1]; Table 7 run, 2 days, 31.25 PPM): 35.1 PPM
- Log (Growth) ([1]; Table 7 run, 2 days, 31.25 PPM): 7.3
- H2S ([1]; Table 7 run, 2 days, 125 PPM): 13.3 PPM
- Log (Growth) ([1]; Table 7 run, 2 days, 125 PPM): 6.3
- H2S ([1]; Table 7 run, 2 days, 500 PPM): 2.7 PPM
- Log (Growth) ([1]; Table 7 run, 2 days, 500 PPM): 5.3
- H2S ([1]; Table 7 run, 2 days, 1000 PPM): 2.2 PPM
- Log (Growth) ([1]; Table 7 run, 2 days, 1000 PPM): 3.0
- H2S ([1]; Table 7 run, 5 days, 7.615 PPM): 27.7 PPM
- Log (Growth) ([1]; Table 7 run, 5 days, 7.615 PPM): 7.3
- H2S ([1]; Table 7 run, 5 days, 15.75 PPM): 29.2 PPM
- Log (Growth) ([1]; Table 7 run, 5 days, 15.75 PPM): 7.0
- H2S ([1]; Table 7 run, 5 days, 31.25 PPM): 22.1 PPM
- Log (Growth) ([1]; Table 7 run, 5 days, 31.25 PPM): 7.3
- H2S ([1]; Table 7 run, 5 days, 125 PPM): 6.9 PPM
- Log (Growth) ([1]; Table 7 run, 5 days, 125 PPM): 5.0
- H2S ([1]; Table 7 run, 5 days, 500 PPM): 2.1 PPM
- Log (Growth) ([1]; Table 7 run, 5 days, 500 PPM): 4.3
- H2S ([1]; Table 7 run, 5 days, 1000 PPM): 2.0 PPM
- Log (Growth) ([1]; Table 7 run, 5 days, 1000 PPM): 0.0
- efficacy for inhibiting hydrogen sulfide production [2]: high efficacy
